The source of these data is patent US20250353864A1, “INDAZOLE CONTAINING MACROCYCLES AND THEIR USE” (BLOSSOMHILL THERAPEUTICS, INC., priority 2022, published 2025).

The term IC50 denotes the concentration that gives 50% inhibition.

Holding throughout (assay type): biochemical
The target in assay [1] is CLK3 (Homo sapiens (Human), UniProt P49761). The assay can be described thus: Inhibition of CLK3 kinase activity evaluated at Nanosyn (ADP-Glo). To be noted: ADP-Glo luminescence. The procedure, abridged:
(§1)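 Enzyme + substrate in HEPES pH 7.5/MgCl2/DTT buffer; compound dispensed acoustically, 1% DMSO. ATP start, assay-specific incubation time. ADP-Glo reagent 40 min, detection reagent 10 min, luminescence. %inh vs DMSO (0%) and no-enzyme (100%) controls.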

The target of assay [2] is EGFR Δ746-750/C797S mutant (Homo sapiens (Human), UniProt P00533, C797S/DEL746-750). The assay can be described thus: HotSpot radiometric kinase assay, EGFR Δ746-750/C797S mutant. To be noted: 10 μM ATP. The procedure, abridged:
(§2)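 IC50 values come from curve fits of ^33P incorporation captured on P81 filters after acid washing. Kinase reactions ran 120 min at room temperature with 10 μM ATP, added about 20 min after compound. Buffer was Hepes pH 7.5 containing Mg, DTT and 1% DMSO.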

Assay [3] has as its target EGFR Δ746-750 mutant (Homo sapiens (Human), UniProt P00533, DEL746-750). Briefly: HotSpot radiometric kinase assay, EGFR Δ746-750 mutant. To be noted: 10 μM ATP. The procedure, abridged:
as §2

Assay [4] has as its target CLK1 (Homo sapiens (Human), UniProt P49759). Briefly: Inhibition of CLK1 kinase activity evaluated at Nanosyn (ADP-Glo). To be noted: ADP-Glo luminescence. A digest of the protocol: as §1
(ADP-Glo turns the ADP formed in a reaction into a luminescent signal.)

In assay [5] the target is CLK4 (Homo sapiens (Human), UniProt Q9HAZ1). Briefly: Inhibition of CLK4 kinase activity evaluated at Nanosyn (ADP-Glo). To be noted: ADP-Glo luminescence. The procedure, abridged: as §1
Chain of CLK4 (Q9HAZ1 whole entry): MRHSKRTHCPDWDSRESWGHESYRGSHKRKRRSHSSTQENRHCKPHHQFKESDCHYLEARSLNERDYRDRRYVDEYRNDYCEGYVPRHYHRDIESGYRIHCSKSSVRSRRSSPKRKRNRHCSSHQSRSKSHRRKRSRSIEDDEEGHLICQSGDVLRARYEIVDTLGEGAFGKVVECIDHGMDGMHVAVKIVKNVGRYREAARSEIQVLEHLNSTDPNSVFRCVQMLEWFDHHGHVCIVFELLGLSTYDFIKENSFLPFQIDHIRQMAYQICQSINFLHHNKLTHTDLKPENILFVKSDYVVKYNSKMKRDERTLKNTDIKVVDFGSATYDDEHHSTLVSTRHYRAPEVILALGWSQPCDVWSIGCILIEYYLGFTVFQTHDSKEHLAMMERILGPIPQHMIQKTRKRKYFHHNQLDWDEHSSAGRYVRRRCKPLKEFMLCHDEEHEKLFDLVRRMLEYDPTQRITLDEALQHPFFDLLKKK
Assay [6] concerns the target EGFR L858R/T790M/C797S mutant (Homo sapiens (Human), UniProt P00533, C797S/L858R/T790M). The assay can be described thus: HotSpot radiometric kinase assay, EGFR L858R/T790M/C797S mutant. To be noted: 10 μM ATP. The procedure, abridged:
as §2

In assay [7] the target is EGFR L858R/T790M mutant (Homo sapiens (Human), UniProt P00533, L858R/T790M). The assay can be described thus: HotSpot radiometric kinase assay, EGFR L858R/T790M mutant. To be noted: 10 μM ATP. A digest of the protocol: as §2
Chain of EGFR L858R/T790M mutant (P00533 25-1210 T790M/L858R): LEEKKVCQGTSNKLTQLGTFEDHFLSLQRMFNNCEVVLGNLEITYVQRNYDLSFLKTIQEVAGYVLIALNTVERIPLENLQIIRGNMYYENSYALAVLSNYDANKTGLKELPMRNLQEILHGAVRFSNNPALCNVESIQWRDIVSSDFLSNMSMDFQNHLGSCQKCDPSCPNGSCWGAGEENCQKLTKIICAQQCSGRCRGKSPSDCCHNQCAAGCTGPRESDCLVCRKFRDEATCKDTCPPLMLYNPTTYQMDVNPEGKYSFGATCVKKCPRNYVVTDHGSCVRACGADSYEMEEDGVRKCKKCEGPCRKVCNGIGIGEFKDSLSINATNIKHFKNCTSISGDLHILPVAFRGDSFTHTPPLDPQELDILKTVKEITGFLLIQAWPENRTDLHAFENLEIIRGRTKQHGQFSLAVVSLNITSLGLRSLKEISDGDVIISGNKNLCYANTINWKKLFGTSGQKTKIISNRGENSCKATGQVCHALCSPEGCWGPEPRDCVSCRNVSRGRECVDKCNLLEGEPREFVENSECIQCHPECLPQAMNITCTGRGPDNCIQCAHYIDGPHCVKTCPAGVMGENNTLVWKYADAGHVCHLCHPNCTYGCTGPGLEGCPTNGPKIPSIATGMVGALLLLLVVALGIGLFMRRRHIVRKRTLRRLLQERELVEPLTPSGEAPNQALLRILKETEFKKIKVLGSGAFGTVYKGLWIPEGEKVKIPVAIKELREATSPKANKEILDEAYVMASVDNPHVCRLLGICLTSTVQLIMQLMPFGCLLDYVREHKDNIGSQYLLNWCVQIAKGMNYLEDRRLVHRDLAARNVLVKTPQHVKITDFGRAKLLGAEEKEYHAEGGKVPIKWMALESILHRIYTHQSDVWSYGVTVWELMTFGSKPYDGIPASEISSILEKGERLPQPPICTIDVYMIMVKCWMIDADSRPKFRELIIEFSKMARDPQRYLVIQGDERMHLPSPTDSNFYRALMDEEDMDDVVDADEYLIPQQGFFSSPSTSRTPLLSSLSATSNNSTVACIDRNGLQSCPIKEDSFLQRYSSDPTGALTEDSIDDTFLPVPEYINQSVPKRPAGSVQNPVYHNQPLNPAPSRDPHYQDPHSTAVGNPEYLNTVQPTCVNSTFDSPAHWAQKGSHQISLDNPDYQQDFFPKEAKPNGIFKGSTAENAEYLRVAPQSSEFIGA
Assay [8] concerns the target CLK2 (Homo sapiens (Human), UniProt P49760). The assay can be described thus: Inhibition of CLK2 kinase activity evaluated at Nanosyn (ADP-Glo). To be noted: ADP-Glo luminescence. A digest of the protocol: as §1
Assay [9] concerns the target EGFR L858R mutant (Homo sapiens (Human), UniProt P00533, L858R). Briefly: HotSpot radiometric kinase assay, EGFR L858R mutant. To be noted: 10 μM ATP. A digest of the protocol: as §2
For assay [10], the target named is EGFR (D770_N771insNPG) (Homo sapiens (Human), UniProt P00533, INS770NPG). Briefly: HotSpot radiometric kinase assay, EGFR (D770_N771insNPG). To be noted: 10 μM ATP, read-out: EGFR (Δ770_N771insNPG) IC50. The procedure, abridged:
as §2

For assay [11], the target named is EGFR WT (Homo sapiens (Human), UniProt P00533). Briefly: HotSpot radiometric kinase assay (Reaction Biology), EGFR WT. To be noted: 10 μM ATP. A digest of the protocol:
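Enzyme and substrate pairs were exposed to inhibitor for roughly 20 min before radiolabelled ATP (10 μM final) was introduced; the reaction proceeded 120 min at ambient temperature in pH 7.5 buffer with 1% DMSO, and phosphorylated product was captured on P81 filters for IC50 determination.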

Chain of EGFR WT (P00533 25-1210): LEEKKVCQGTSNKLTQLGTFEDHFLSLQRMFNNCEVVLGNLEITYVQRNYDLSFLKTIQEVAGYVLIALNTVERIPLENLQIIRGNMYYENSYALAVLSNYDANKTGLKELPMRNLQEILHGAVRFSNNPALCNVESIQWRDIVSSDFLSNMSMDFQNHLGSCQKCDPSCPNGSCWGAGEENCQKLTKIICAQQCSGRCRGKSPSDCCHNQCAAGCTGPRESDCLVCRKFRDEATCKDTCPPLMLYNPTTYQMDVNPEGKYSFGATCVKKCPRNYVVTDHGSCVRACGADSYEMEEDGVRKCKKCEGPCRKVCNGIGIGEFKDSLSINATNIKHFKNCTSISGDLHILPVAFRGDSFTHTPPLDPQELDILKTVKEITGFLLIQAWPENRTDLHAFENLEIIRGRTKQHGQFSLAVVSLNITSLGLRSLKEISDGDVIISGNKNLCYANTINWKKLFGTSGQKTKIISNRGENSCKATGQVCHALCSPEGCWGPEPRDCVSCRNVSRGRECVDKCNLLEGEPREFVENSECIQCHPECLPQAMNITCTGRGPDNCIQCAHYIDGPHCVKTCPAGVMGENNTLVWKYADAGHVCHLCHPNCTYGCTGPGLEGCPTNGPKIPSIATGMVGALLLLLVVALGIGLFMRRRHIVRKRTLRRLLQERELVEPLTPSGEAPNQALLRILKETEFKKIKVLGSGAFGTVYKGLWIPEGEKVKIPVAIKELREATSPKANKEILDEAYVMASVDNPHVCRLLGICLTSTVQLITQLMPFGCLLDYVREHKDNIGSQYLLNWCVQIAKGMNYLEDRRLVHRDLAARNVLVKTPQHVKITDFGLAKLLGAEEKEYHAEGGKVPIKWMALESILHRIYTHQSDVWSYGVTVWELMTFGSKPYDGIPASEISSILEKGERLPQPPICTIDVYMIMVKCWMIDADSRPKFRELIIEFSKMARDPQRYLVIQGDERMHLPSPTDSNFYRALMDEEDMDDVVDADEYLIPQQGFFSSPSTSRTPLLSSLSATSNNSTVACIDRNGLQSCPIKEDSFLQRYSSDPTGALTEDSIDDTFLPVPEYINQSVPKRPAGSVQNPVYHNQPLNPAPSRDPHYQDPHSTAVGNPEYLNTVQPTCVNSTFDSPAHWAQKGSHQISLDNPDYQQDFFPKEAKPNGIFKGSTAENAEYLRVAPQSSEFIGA
Chain of EGFR (D770_N771insNPG) (P00533 other isoform, or with tags, fused parts or gaps del 1-668/ins NPG behind 770 limits assumed): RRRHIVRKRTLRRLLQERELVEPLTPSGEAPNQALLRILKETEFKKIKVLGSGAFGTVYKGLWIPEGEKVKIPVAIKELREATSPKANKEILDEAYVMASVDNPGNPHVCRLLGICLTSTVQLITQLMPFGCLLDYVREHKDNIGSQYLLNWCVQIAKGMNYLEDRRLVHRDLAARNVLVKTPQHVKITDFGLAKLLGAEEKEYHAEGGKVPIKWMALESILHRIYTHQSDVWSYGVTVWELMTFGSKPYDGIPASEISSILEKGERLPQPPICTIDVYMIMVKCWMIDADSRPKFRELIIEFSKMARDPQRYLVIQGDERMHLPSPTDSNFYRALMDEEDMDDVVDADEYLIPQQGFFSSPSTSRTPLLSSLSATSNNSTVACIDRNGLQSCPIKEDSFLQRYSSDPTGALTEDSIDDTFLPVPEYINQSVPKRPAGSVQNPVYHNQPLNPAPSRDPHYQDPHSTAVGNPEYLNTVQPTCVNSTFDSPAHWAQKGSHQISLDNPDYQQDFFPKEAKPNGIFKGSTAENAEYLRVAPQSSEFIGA
Chain of EGFR Δ746-750 mutant (P00533 other isoform, or with tags, fused parts or gaps del 1-668/del 746-750 limits assumed): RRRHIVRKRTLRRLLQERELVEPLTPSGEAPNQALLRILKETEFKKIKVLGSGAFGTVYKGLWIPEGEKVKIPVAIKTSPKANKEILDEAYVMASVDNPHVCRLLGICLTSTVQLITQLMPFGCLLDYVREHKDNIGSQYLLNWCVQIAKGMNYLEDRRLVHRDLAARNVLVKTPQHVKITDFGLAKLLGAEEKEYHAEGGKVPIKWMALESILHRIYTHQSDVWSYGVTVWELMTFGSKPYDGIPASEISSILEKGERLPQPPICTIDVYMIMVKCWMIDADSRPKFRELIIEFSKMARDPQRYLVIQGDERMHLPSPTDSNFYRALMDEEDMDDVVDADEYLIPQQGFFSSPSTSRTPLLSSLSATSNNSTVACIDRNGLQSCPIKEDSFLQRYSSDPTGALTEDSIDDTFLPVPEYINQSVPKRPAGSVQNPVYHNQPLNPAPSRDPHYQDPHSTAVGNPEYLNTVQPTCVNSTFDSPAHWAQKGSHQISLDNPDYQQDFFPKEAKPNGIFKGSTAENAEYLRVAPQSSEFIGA
Chain of CLK2 (P49760 whole entry): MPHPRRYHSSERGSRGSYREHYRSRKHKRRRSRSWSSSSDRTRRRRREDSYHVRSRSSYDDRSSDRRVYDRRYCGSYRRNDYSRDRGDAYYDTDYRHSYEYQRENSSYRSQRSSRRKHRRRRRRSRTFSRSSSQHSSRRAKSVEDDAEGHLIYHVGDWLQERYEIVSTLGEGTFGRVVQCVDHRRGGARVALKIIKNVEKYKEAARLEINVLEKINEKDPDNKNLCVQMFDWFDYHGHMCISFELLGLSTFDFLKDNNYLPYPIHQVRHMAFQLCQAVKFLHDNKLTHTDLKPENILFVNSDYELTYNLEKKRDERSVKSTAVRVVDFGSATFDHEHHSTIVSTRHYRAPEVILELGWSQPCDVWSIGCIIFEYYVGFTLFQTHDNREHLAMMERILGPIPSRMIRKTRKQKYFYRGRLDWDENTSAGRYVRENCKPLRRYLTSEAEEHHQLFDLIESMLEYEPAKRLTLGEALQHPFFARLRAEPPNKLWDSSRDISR
Chain of EGFR Δ746-750/C797S mutant (P00533 other isoform, or with tags, fused parts or gaps C797S/del 1-668/del 746-750 limits assumed): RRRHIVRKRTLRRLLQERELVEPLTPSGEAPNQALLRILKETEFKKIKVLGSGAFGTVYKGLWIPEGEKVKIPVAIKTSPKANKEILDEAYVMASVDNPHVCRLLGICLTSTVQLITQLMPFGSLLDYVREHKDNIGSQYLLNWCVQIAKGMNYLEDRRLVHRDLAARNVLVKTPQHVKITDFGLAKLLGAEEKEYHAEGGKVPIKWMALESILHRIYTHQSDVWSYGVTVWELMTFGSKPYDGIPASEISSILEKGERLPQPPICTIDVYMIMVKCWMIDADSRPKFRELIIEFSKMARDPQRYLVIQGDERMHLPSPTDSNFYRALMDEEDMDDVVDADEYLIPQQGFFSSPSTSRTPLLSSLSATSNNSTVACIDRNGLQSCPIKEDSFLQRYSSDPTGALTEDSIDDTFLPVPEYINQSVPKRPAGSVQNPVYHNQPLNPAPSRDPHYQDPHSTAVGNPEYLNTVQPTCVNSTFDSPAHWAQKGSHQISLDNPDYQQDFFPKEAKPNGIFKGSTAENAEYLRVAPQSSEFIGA

As to `CCOc1nn(CCO)c2c1/C=C/c1n[nH]c3ccc(cc13)-c1c(C)nn(C)c1O[C@@H](C)CN(C(C)C)C2` [Example 142, 2-[(10S,17E)-16-ethoxy-6,8,10-trimethyl-12-(propan-2-yl)-2,8,10,11,12,13-hexahydro-14H-3,5-ethenotripyrazolo[3,4-f:3′,4′-j:4″,3″- n][1,4]oxazacyclopentadecin-14-yl]ethan-1-ol], the IC50 in assay [1] is 1000 nM; in [2] it was 1.32 nM; in assay [3] it was 1.11 nM; in assay [4], 11.9 nM; in [5], 5.91 nM; in assay [6] it was 1.83 nM. Also, the IC50 in assay [7] was determined as 1.29 nM; in assay [8], 13.9 nM; in assay [9] it was 0.9 nM; in assay [10], 16.7 nM; in assay [11], 2.14 nM.

Take `CSCn1ncc2c1O[C@@H](C)CN(C(C)C)Cc1c(c(C)nn1C)/C=C/c1n[nH]c3ccc-2cc13` [Example 164, (10S,17E)-10,14,16-trimethyl-8-[(methylsulfanyl)methyl]-12-(propan-2-yl)-2,10,11,12,13,14-hexahydro-8H-3,5-ethenotripyrazolo[3,4-f:3′,4′-j:4″,3″-n][1,4]oxazacyclopentadecine]: the IC50 in assay [1] turned out to be 1000 nM; in assay [2], 20.2 nM; in assay [3] it was 33.4 nM; in [4], 0.39 nM; in assay [5] it was 0.59 nM; in assay [6], 1.76 nM. Moreover, the IC50 was determined as 3.23 nM in assay [7]; 0.75 nM in [8]; 16.7 nM in assay [9]; 95.3 nM in assay [10]; 220 nM in assay [11].

As to `CC(C)Oc1nn(CCO)c2c1/C=C/c1n[nH]c3ccc(cc13)-c1cnn(C)c1O[C@@H](C)CN(C)[C@@H]2C` [Example 223], the IC50 in [1] worked out at 30 nM; in assay [2], 3.12 nM; in [3], 4.07 nM; in assay [4], 0.85 nM; in [5], 2.11 nM; in assay [6] it was 0.34 nM. For the same compound, the IC50 came to 0.61 nM in assay [7]; 0.28 nM in assay [8]; 7.07 nM in assay [9]; 102 nM in assay [10]; 42.6 nM in assay [11].

In the case of `CCOc1nccc2c1/C=C/c1n[nH]c3ccc(cc13)-c1cnn(C)c1O[C@@H](C)CN(C)C2` [Example 240, (10S,18E)-17-ethoxy-8,10,12-trimethyl-2,8,10,11,12,13-hexahydro-3,5-ethenodipyrazolo[3,4-j:4′,3′-n]pyrido[4,3-f][1,4]oxazacyclopentadecine], the IC50 in assay [1] came to 1000 nM; in assay [2], 653 nM; in assay [3] it was 826 nM; in [4], 1.12 nM; in assay [5], 1.52 nM; in assay [6], 10.5 nM. In addition, the IC50 is 5.92 nM in [7]; 12.5 nM in [8]; 775 nM in [9]; greater than 1000 nM in assay [10]; greater than 1000 nM in assay [11].

As for `Cc1nn(C)c2c1/C=C/c1n[nH]c3ccc(cc13)-c1cnn(C)c1O[C@@H](C)CN(C1CC1)C2` [Example 161, (10S,17E)-12-cyclopropyl-8,10,14,16-tetramethyl-2,10,11,12,13,14-hexahydro-8H-3,5-ethenotripyrazolo[3,4-f:3′,4′-j:4″,3″-n][1,4]oxazacyclopentadecine], the IC50 in assay [1] was 164 nM; in [2], 13.5 nM; in assay [3], 20 nM; in [4] it was 0.27 nM; in assay [5] it was 0.57 nM; in assay [6] it was 1.4 nM. The IC50 in assay [7] amounted to 3.1 nM; in [8] it was 0.14 nM; in assay [9], 47.1 nM; in assay [10] it was 191 nM; in assay [11] it was 171 nM.
